In patent US9079866B2, “Flap modulators” (JANSSEN PHARMACEUTICA NV, priority 2013, dated 2015):

Tests used:
human FLAP = human FLAP (Homo sapiens (Human), UniProt P20292); test: FLAP binding assay (HTRF format); details: wild type FLAP, HTRF format
In short: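 Samples were run in duplicate on each of two plates and the plate results averaged. Read-out is the HTRF signal ratio.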

[1] = system: leukotriene pathway in human whole blood (LTB4 levels); test: Human whole blood assay (A23187-stimulated LTB4); assay type: cell-based; details: Homo sapiens, human whole blood diluted 1:1, A23187-stimulated; read-out: LTB4 IC50 1:1
In short: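 Heparinised human whole blood diluted 1:1 in RPMI, pre-incubated 15 min at 37° Celsius with compound, then stimulated with A23187 (7 μg/mL) for 30 min at 37° Celsius. Plasma LTB4 measured by immunoassay kit; IC50 from 4-parameter fit; single replicate per plate, at least one healthy donor.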

Chain of human FLAP (P20292 whole entry): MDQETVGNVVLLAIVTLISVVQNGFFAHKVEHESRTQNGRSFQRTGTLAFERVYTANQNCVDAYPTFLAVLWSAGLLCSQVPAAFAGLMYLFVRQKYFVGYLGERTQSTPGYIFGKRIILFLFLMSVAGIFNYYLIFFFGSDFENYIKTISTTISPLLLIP

## C[C@H](CO)NS(=O)(=O)c1ccccc1-c1ccc(-c2ncc(N)nc2C#N)c(F)c1 [Example 710, 4′-(5-Amino-3-cyanopyrazin-2-yl)-3′-fluoro-N-[(1R)-2-hydroxy-1-methylethyl]biphenyl-2-sulfonamide]
Human FLAP
  Ki: 13.7 nM
[1]
  IC50: 56.5 nM

## C[C@@H](CO)NS(=O)(=O)c1ccccc1-c1ccc(-c2ncc(N)nc2C#N)c(F)c1 [Example 711, 4′-(5-Amino-3-cyanopyrazin-2-yl)-3′-fluoro-N-[(1S)-2-hydroxy-1-methylethyl]biphenyl-2-sulfonamide]
Human FLAP
  Ki: 41.7 nM
[1]
  IC50: 142 nM

## N#Cc1nc(N)cnc1-c1ccc(-c2ccc(C(F)(F)F)cc2S(=O)(=O)NCCO)cc1F [Example 712, 4′-(5-Amino-3-cyanopyrazin-2-yl)-3′-fluoro-N-(2-hydroxyethyl)-4-(trifluoromethyl)biphenyl-2-sulfonamide]
Human FLAP
  Ki: 1.9 nM
[1]
  IC50: 52.3 nM

## CCNS(=O)(=O)c1cc(C(F)(F)F)ccc1-c1ccc(-c2ncc(N)nc2C#N)c(F)c1 [Example 713, 4′-(5-Amino-3-cyanopyrazin-2-yl)-N-ethyl-3′-fluoro-4-(trifluoromethyl)-[1,1′-biphenyl]-2-sulfonamide]
Human FLAP
  Ki: 1.7 nM
[1]
  IC50: 53.4 nM

## CC(C)(CO)CNS(=O)(=O)c1ccccc1-c1ccc(-c2ncc(N)nc2C#N)c(F)c1 [Example 714, 4′-(5-Amino-3-cyanopyrazin-2-yl)-3′-fluoro-N-(3-hydroxy-2,2-dimethylpropyl)biphenyl-2-sulfonamide]
Human FLAP
  Ki: 2.4 nM
[1]
  IC50: 33.1 nM

## Nc1cnc(-c2ccc(-c3ccccc3S(=O)(=O)c3nccc(N)n3)cc2F)cn1 [Example 727, 2-{[4′-(5-Aminopyrazin-2-yl)-3′-fluorobiphenyl-2-yl]sulfonyl}pyrimidin-4-amine]
Human FLAP
  Ki: 484 nM
[1]
  IC50: 1170 nM

## N#Cc1nc(N)cnc1-c1ccc(-c2ccccc2S(=O)(=O)C2CC2)cc1F [Example 729, 6-Amino-3-[2′-(cyclopropylsulfonyl)-3-fluorobiphenyl-4-yl]pyrazine-2-carbonitrile]
Human FLAP
  Ki: 64.7 nM
[1]
  IC50: 861 nM

## N#CC1(S(=O)(=O)c2ccccc2-c2ccc(-c3cnc(N)cn3)c(F)c2)CCCC1 [Example 730, 1-{[4′-(5-Aminopyrazin-2-yl)-3′-fluorobiphenyl-2-yl]sulfonyl}cyclopentanecarbonitrile]
Human FLAP
  Ki: 6.7 nM
[1]
  IC50: 136 nM

## NC(=O)C1(S(=O)(=O)c2ccccc2-c2ccc(-c3cnc(N)cn3)c(F)c2)CCCC1 [Example 731, 1-{[4′-(5-Aminopyrazin-2-yl)-3′-fluorobiphenyl-2-yl]sulfonyl}cyclopentanecarboxamide]
Human FLAP
  Ki: 14.7 nM
[1]
  IC50: 51.3 nM

## CC(C)(C#N)S(=O)(=O)c1ccccc1-c1ccc(-c2cnc(N)cn2)c(F)c1 [Example 735, 2-{[4′-(5-Aminopyrazin-2-yl)-3′-fluorobiphenyl-2-yl]sulfonyl}-2-methylpropanenitrile]
Human FLAP
  Ki: 32 nM
[1]
  IC50: 272 nM

## N#CC1(S(=O)(=O)c2ccccc2-c2ccc(-c3cnc(N)nc3)c(F)c2)CCCC1 [Example 738, 1-{[4′-(2-Aminopyrimidin-5-yl)-3′-fluorobiphenyl-2-yl]sulfonyl}cyclopentanecarbonitrile]
Human FLAP
  Ki: 240 nM
[1]
  IC50: 2950 nM

## NC(=O)C1(S(=O)(=O)c2ccccc2-c2ccc(-c3cnc(N)nc3)c(F)c2)CCCC1 [Example 739, 1-{[4′-(2-Aminopyrimidin-5-yl)-3′-fluorobiphenyl-2-yl]sulfonyl}cyclopentanecarboxamide]
Human FLAP
  Ki: 370 nM
[1]
  IC50: 1110 nM

## Nc1cnc(Sc2ccccc2-c2ccc(-c3cnc(N)cn3)c(F)c2)cn1 [Example 741, 5-{[4′-(5-Aminopyrazin-2-yl)-3′-fluorobiphenyl-2-yl]sulfanyl}pyrazin-2-amine]
Human FLAP
  Ki: 4.6 nM
[1]
  IC50: 26.3 nM

## Nc1cnc(-c2ccc(-c3ccccc3Sc3cncc(N)n3)cc2F)cn1 [Example 742, 5-{2′-[(6-Aminopyrazin-2-yl)sulfanyl]-3-fluorobiphenyl-4-yl}pyrazin-2-amine]
Human FLAP
  Ki: 2.9 nM
[1]
  IC50: 25.7 nM
